Assay results reported in US6960614B2, “Oxygenated esters of 4-lodo phenylamino benzhydroxamic acids” (Warner-Lambert Company, priority 2000, dated 2005).

System: MEK
Assay: Cellular Assay for Measuring MEK Inhibition (inhibition of ERK phosphorylation in C26 cells, Western blot)
Type: cell-based, murine
Conditions: for % Inhibition @ 0.1 μM / % Inhibition @ 1 μM / % Inhibition @ 10 μM: ERK phosphorylation in C26 cells; for IC50: inhibition of ERK phosphorylation in murine colon 26 (C26) carcinoma cells, determined graphically from dose response curve
In short: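 Read-out is phospho-ERK1/2 by Western blot, normalized against total ERK1/2 after stripping and re-probing. Murine C26 colon carcinoma cells in exponential growth were exposed to a range of compound concentrations at 37° C before lysis.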

Row | Compound | % Inhibition @ 0.1 μM [%] | % Inhibition @ 1 μM [%] | IC50 [nM] | % Inhibition @ 10 μM [%]
1 | O=C(NOCC(O)COc1ccccc1)c1cc(F)c(F)c(F)c1Nc1ccc(I)cc1Cl (centres unmarked) [Example 184, 2-(2-Chloro-4-iodo-phenylamino)-3,4,5-trifluoro-N-(2-hydroxy-3-phenoxy-propoxy)-benzamide] | 16.1 | 82.5 |  | 
2 | Cc1cc(I)ccc1Nc1c(C(=O)NOCC(O)COc2ccccc2)cc(F)c(F)c1F (centres unmarked) [Example 185, 3,4,5-Trifluoro-N-(2-hydroxy-3-phenoxy-propoxy)-2-(4-iodo-2-methyl-phenylamino)-benzamide] | 6.2 | 71.9 |  | 
3 | O=C(NOCC(O)COc1ccccc1)c1cc(Br)c(F)c(F)c1Nc1ccc(I)cc1Cl (centres unmarked) [Example 186, 5-Bromo-2-(2-chloro-4-iodo-phenylamino)-3,4-difluoro-N-(2-hydroxy-3-phenoxy-propoxy)-benzamide] |  |  | 34 | 
4 | Cc1cc(I)ccc1Nc1c(C(=O)NOCC(O)COc2ccccc2)cc(Br)c(F)c1F (centres unmarked) [Example 187, 5-Bromo-3,4-difluoro-N-(2-hydroxy-3-phenoxy-propoxy)-2-(4-iodo-2-methyl-phenylamino)-benzamide] | 13.8 | 83.3 |  | 
5 | Cc1cc(I)ccc1Nc1c(C(=O)NOCC(O)COc2ccccc2)ccc(F)c1F (centres unmarked) [Example 188, 3,4-Difluoro-N-(2-hydroxy-3-phenoxy-propoxy)-2-(4-iodo-2-methyl-phenylamino)-benzamide] |  |  | 44 | 
6 | Cc1cc(I)ccc1Nc1c(C(=O)NOCC(O)COc2ccccc2)cc(Cl)c(F)c1F (centres unmarked) [Example 190, 5-Chloro-3,4-difluoro-N-(2-hydroxy-3-phenoxy-propoxy)-2-(4-iodo-2-methyl-phenylamino)-benzamide] | 51.5 | 94.6 |  | 
7 | O=C(NOCC(O)COc1ccccc1)c1ccc(F)c(F)c1Nc1ccc(I)cc1F (centres unmarked) [Example 191, 3,4-Difluoro-2-(2-fluoro-4-iodo-phenylamino)-N-(2-hydroxy-3-phenoxy-propoxy)-benzamide] |  |  | 6 | 
8 | O=C(NOCC(O)COc1ccccc1)c1cc(Cl)c(F)c(F)c1Nc1ccc(I)cc1F (centres unmarked) [Example 192, 5-Chloro-3,4-difluoro-2-(2-fluoro-4-iodo-phenylamino)-N-(2-hydroxy-3-phenoxy-propoxy)-benzamide] |  |  | 7 | 
9 | O=C(NOCC(O)COc1ccccc1)c1cc(F)c(F)cc1Nc1ccc(I)cc1F (centres unmarked) [Example 193, 4,5-Difluoro-2-(2-fluoro-4-iodo-phenylamino)-N-(2-hydroxy-3-phenoxy-propoxy)-benzamide] |  |  | 10 | 
10 | O=C(NOCC(O)COc1ccccc1)c1cc(Cl)c(F)c(F)c1Nc1ccc(F)cc1F (centres unmarked) [Example 194, 5-Chloro-2-(2,4-difluoro-phenylamino)-3,4-difluoro-N-(2-hydroxy-3-phenoxy-propoxy)-benzamide] | 0 | 0 |  | 
11 | O=C(NOCC(O)COc1ccccc1)c1ccc(F)c(F)c1Nc1ccc(F)cc1F (centres unmarked) [Example 195, 2-(2,4-Difluoro-phenylamino)-3,4-difluoro-N-(2-hydroxy-3-phenoxy-propoxy)-benzamide] |  | 26.7 |  | 82.6
12 | O=C(NOCC(O)COc1ccccc1)c1ccc(F)c(F)c1Nc1ccc(Cl)cc1F (centres unmarked) [Example 196, 2-(4-Chloro-2-fluoro-phenylamino)-3,4-difluoro-N-(2-hydroxy-3-phenoxy-propoxy)-benzamide] | 10.2 | 82.8 |  | 
13 | Cc1cc(I)ccc1Nc1c(C(=O)NOCC(C)(C)CO)ccc(F)c1F [Example 197, 3,4-Difluoro-N-(3-hydroxy-2,2-dimethyl-propoxy)-2-(4-iodo-2-methyl-phenylamino)-benzamide] |  |  | 51 | 
14 | CC(C)(CO)CONC(=O)c1cc(F)c(F)c(F)c1Nc1ccc(I)cc1Cl [Example 198, 2-(2-Chloro-4-iodo-phenylamino)-3,4,5-trifluoro-N-(3-hydroxy-2,2-dimethyl-propoxy)-benzamide] | 0 | 43.5 |  | 
15 | Cc1cc(I)ccc1Nc1c(C(=O)NOCC(C)(C)CO)cc(F)c(F)c1F [Example 199, 3,4,5-Trifluoro-N-(3-hydroxy-2,2-dimethyl-propoxy)-2-(4-iodo-2-methyl-phenylamino)-benzamide] |  |  | 100 | 
16 | CC(C)(CO)CONC(=O)c1cc(Cl)c(F)c(F)c1Nc1ccc(I)cc1Cl [Example 200, 5-Chloro-2-(2-chloro-4-iodo-phenylamino)-3,4-difluoro-N-(3-hydroxy-2,2-dimethyl-propoxy)-benzamide] |  |  | 300 | 
17 | Cc1cc(I)ccc1Nc1c(C(=O)NOCC(C)(C)CO)cc(Cl)c(F)c1F [Example 201, 5-Chloro-3,4-difluoro-N-(3-hydroxy-2,2-dimethyl-propoxy)-2-(4-iodo-2-methyl-phenylamino)-benzamide] |  |  | 100 | 

Row | Compound | % Inhibition @ 0.1 μM [%] | % Inhibition @ 1 μM [%] | IC50 [nM] | % Inhibition @ 10 μM [%]
18 | CC(C)(CO)CONC(=O)c1ccc(F)c(F)c1Nc1ccc(I)cc1F [Example 202, 3,4-Difluoro-2-(2-fluoro-4-iodo-phenylamino)-N-(3-hydroxy-2,2-dimethyl-propoxy)-benzamide] | 59.7 | 94.6 |  | 
19 | CC(C)(CO)CONC(=O)c1cc(Cl)c(F)c(F)c1Nc1ccc(F)cc1F [Example 203, 5-Chloro-2-(2,4-difluoro-phenylamino)-3,4-difluoro-N-(3-hydroxy-2,2-dimethyl-propoxy)-benzamide] |  | 0 |  | 37.4
20 | COCCOCCONC(=O)c1cc(Br)c(F)c(F)c1Nc1ccc(I)cc1C [Example 206, 5-Bromo-3,4-difluoro-2-(4-iodo-2-methyl-phenylamino)-N-[2-(2-methoxy-ethoxy)-ethoxy]-benzamide] |  |  | 140 | 
21 | COCCOCCONC(=O)c1ccc(F)c(F)c1Nc1ccc(I)cc1Cl [Example 207, 2-(2-Chloro-4-iodo-phenylamino)-3,4-difluoro-N-[2-(2-methoxy-ethoxy)-ethoxy]-benzamide] |  |  | 212 | 
22 | COCCOCCONC(=O)c1cc(F)c(F)c(F)c1Nc1ccc(I)cc1Cl [Example 208, 2-(2-Chloro-4-iodo-phenylamino)-3,4,5-trifluoro-N-[2-(2-methoxy-ethoxy)-ethoxy]-benzamide] |  |  | 1030 | 
23 | O=C(NOCC(O)C(F)(F)F)c1cc(F)c(F)c(F)c1Nc1ccc(I)cc1F (centres unmarked) [Example 210, 3,4,5-Trifluoro-2-(2-fluoro-4-iodo-phenylamino)-N-(3,3,3-trifluoro-2-hydroxy-propoxy)-benzamide] | 79.7 | 99.2 |  | 
24 | O=C(NOCC(O)C(F)(F)F)c1cc(Cl)c(F)c(F)c1Nc1ccc(F)cc1F (centres unmarked) [Example 211, 5-Chloro-2-(2,4-difluoro-phenylamino)-3,4-difluoro-N-(3,3,3-trifluoro-2-hydroxy-propoxy)-benzamide] |  | 35 |  | 71.9
25 | O=C(NOCC(O)C(F)(F)F)c1ccc(F)c(F)c1Nc1ccc(F)cc1F (centres unmarked) [Example 212, 2-(2,4-Difluoro-phenylamino)-3,4-difluoro-N-(3,3,3-trifluoro-2-hydroxy-propoxy)-benzamide] |  | 20.1 |  | 85.1
26 | O=C(NOCC(O)C(F)(F)F)c1ccc(F)c(F)c1Nc1ccc(Cl)cc1F (centres unmarked) [Example 213, 2-(4-Chloro-2-fluoro-phenylamino)-3,4-difluoro-N-(3,3,3-trifluoro-2-hydroxy-propoxy)-benzamide] | 6.2 | 78.7 |  | 
27 | O=C(NOCC1CC1CO)c1cc(Cl)c(F)c(F)c1Nc1ccc(F)cc1F (centres unmarked) [Example 214, 5-Chloro-2-(2,4-difluoro-phenylamino)-3,4-difluoro-N-(2-hydroxymethyl-cyclopropylmethoxy)-benzamide] |  | 15.4 |  | 38.2
28 | O=C(NOCC1CC1CO)c1ccc(F)c(F)c1Nc1ccc(F)cc1F (centres unmarked) [Example 215, 2-(2,4-Difluoro-phenylamino)-3,4-difluoro-N-(2-hydroxymethyl-cyclopropylmethoxy)-benzamide] |  | 11.7 |  | 84.8
29 | O=C(NOCC1CC1CO)c1ccc(F)c(F)c1Nc1ccc(Cl)cc1F (centres unmarked) [Example 216, 2-(4-Chloro-2-fluoro-phenylamino)-3,4-difluoro-N-(2-hydroxymethyl-cyclopropylmethoxy)-benzamide] | 41.2 | 87.6 |  | 
30 | O=C(NOCC1CC1CO)c1cc(F)c(F)cc1Nc1ccc(I)cc1F (centres unmarked) [Example 217, 4,5-Difluoro-2-(2-fluoro-4-iodo-phenylamino)-N-(2-hydroxymethyl-cyclopropylmethoxy)-benzamide] | 26.9 | 93.1 |  | 
31 | O=C(NOCC1(CO)CC1)c1ccc(F)c(F)c1Nc1ccc(I)cc1F [Example 218, 3,4-Difluoro-2-(2-fluoro-4-iodo-phenylamino)-N-(1-hydroxymethyl-cyclopropylmethoxy)-benzamide] | 87 | 96.9 |  | 
32 | O=C(NOCC1(CO)CC1)c1cc(F)c(F)c(F)c1Nc1ccc(I)cc1F [Example 219, 3,4,5-Trifluoro-2-(2-fluoro-4-iodo-phenylamino)-N-(1-hydroxymethyl-cyclopropylmethoxy)-benzamide] | 65.3 | 96.2 |  | 
33 | O=C(NOCC1(CO)CC1)c1cc(Br)c(F)c(F)c1Nc1ccc(I)cc1F [Example 220, 5-Bromo-3,4-difluoro-2-(2-fluoro-4-iodo-phenylamino)-N-(1-hydroxymethyl-cyclopropylmethoxy)-benzamide] | 35.4 | 88.8 |  | 
34 | O=C(NOCC1(CO)CC1)c1cc(F)c(F)cc1Nc1ccc(I)cc1F [Example 221, 4,5-Difluoro-2-(2-fluoro-4-iodo-phenylamino)-N-(1-hydroxymethyl-cyclopropylmethoxy)-benzamide] | 46 | 92.4 |  | 
